Earlier results as cited in patent US7939561B2, “Blister packaging for acute pain regimens” (APR Applied Pharma Research s.a., priority 2006, dated 2011).

behaviour in an acidic environment: tendency to precipitate
SMILES: O=C(O)Cc1ccccc1Nc1c(Cl)cccc1Cl [diclofenac potassium]
